From patent US20260007634A1, “PHARMACEUTICAL COMPOSITIONS FOR THE TREATMENT OF ALLERGIC DISEASES” (KINKI UNIVERSITY, priority 2022, published 2026)

Legend:
Th1 cells = experiment: Th1 cell activation in inflammation-induced mouse model (IFNγ flow cytometry); format: in vivo; details: DBA/1J mice, Freund's complete adjuvant + bovine type2 collagen; oral 10 mg/kg daily 20 days; thymus cells; vs vehicle group
Description: Equal volume mixtures of Freund's complete adjuvant and Bovine type2 collagen were administered to 6-week-old male DBA/1J mice (Japan SLC Inc.) at 0.1 mL (day 0 of the study). 21 days later, DBA/1J mice were again injected with 0.1 mL of the above mixture for secondary immunization. After the second immunization, mice were orally treated with 10 mg/kg of mangiferin 8a and 10 mg/kg of norathyriol daily for 20 days. 20 days later, thymus glands were harvested from mice and stained with anti-CD4 and anti-IFNγ antibodies, which are Th1 cell markers, and expression of IFNγ (CD4 positive) was measured using BD LSRFortessa.

mouse B cells = experiment: LPS-stimulated B cell proliferation (trypan blue); format: cell-based; details: 10 μM compound, 10 μg/mL LPS 3 days, control 1.66×10^4, LPS 4.25×10^4
Description: The inhibitory effect of the compound on B cell proliferation was examined using mouse B cells.
B cells collected from mice were cultured in RPMI 1640 medium for 1 day. Then, 10 μM mangiferin 8a and 10 μM norathyriol were added to B cells, and after 1 day of culture, 10 μg/mL of lipopolysaccharide (LPS) was added to each for 3 days. After 3 days of incubation, the number of viable cells was determined by the trypan blue dye method. Note that LPS was used as an allergic inflammation inducer.
Referring to FIG. 48, the horizontal axis indicates treatment with each compound and the vertical axis indicates cell count (1×10^4 cells/mL). Only 0.5% DMSO in PBS, which was used to dissolve the reagent (compound), was added as control. The LPS group is referred to as the LPS group with 10 μg/mL LPS, the mangiferin 8a group is referred to as the mangiferin 8a group with LPS and mangiferin 8a, and the norathyriol group is referred to as the norathyriol group with LPS and norathyriol.

[1] = tested on: Balb/c mice with ovalbumin-induced allergic rhinitis; experiment: Sneezing, ovalbumin-induced allergic rhinitis mice; format: in vivo, mouse; details: OVA allergic rhinitis; oral daily 8 days from day 20, 10 mg/kg (dexamethasone 2 mg/kg); measured day 27; vs vehicle group
Description: A 0.2 mL dose of 50 μg ovalbumin (OVA) and 2 mg Alum mixture was administered to 6-week-old female Balb/c mice (Japan SLC Inc.) (day 0 of the example). Alum was used as an adjuvant. Seven days later and 14 days later, the Balb/c mice were immunized again with 0.2 mL injections of the above mixture. Starting on day 20, mice were orally treated with 10 mg/kg of norathyriol, 10 mg/kg of mangiferin 8a, 10 mg/kg of tofacitinib (JAK inhibitor), 2 mg/kg of dexamethasone (steroid) and 10 mg/kg of olopatadine (antihistamine) daily for 8 consecutive days. Starting on day 21, 400 μg OVA was administered intranasally, and sneezing was measured on day 27. Note that tofacitinib, dexamethasone, and olopatadine are currently in clinical use in allergic rhinitis and were used as control drugs in this example.
The group that was just immunized with OVA is called the subject group, the one that received norathyriol is called the norathyriol group, the one that received mangiferin 8a is called the mangiferin 8a group, the one that received tofacitinib is called the tofacitinib group, the one that received dexamethasone is called the dexamethasone group, and the one that received olopatadine is called the olopatadine group. Each group consisted of five animals.

[2] = tested on: Monocytes collected from mice; experiment: LPS-induced macrophage activation (CD11b/F4/80 flow cytometry); format: cell-based, mouse; details: 10 μM compound, 10 μg/mL LPS, 10 days; control 6.38, LPS only 26.8
Description: Monocytes collected from mice were cultured in RPMI 1640 medium for 1 day. Then, 10 μM mangiferin 8a and 10 μM norathyriol were added to monocytes, and after 1 day of culture, 10 μg/mL of LPS was added, followed by 10 days of culture. After 10 days of culture, cells were stained with anti-CD11b and anti-F4/80 antibodies, markers of macrophages, and expression of CD11b and F4/80 was measured using BD LSRFortessa. Note that CD11b positive and F4/80 positive indicate activated macrophages.

NF-κB p52 = experiment: BAFF-stimulated B cells, nuclear NF-κB p52 (Western blotting); format: cell-based, mouse; details: vs 100 ng/mL BAFF; 100 μM mangiferin, 20 μM 1,3,5,6-tetrahydroxyxanthone, 10 μM others
Description: Spleens were harvested from 6-week-old male Balb/c mice and B cells were isolated. After isolation, the cells were seeded in […] dish and cultured in RPMI 1640 medium for 1 day and used as control. In addition, B cells were seeded into 100 mm^2 dish, and after 1 day of culture, 100 ng/mL BAFF was added and cultured for 1 h. Furthermore, B cells were seeded in […] dish, and after 1 day of culture, 100 μM mangiferin, 10 μM mangiferin 8a, 10 μM norathyriol, 20 μM 1,3,5,6-tetrahydroxyxanthone, 10 μM xanthohydrol, 10 μM of α-mangostin, and 10 μM of γ-mangostin were added to B cells, and after 23 h, 100 ng/mL BAFF was added to each, and the cells were incubated for 1 h. All were incubated at 37° C. and 5% CO2.
Proteins were extracted with cell lysate and used as samples. Each sample was transferred to a PVDF membrane after SDSPAGE and assayed with anti-phospho-NIK, anti-NIK, anti-NF-κB p52, anti-NF-κB p65 and anti-Lamin antibodies.
The antibody species is indicated in the vertical direction. Specifically, in the case of anti-phospho-NIK antibody (described as “Phospho-NIK”), anti-NIK antibody (described as “NIK”), anti-NF-κB p52 antibody (described as “NF-κB p52 nuclear”), anti-NF-κB p65 antibody (described as “NF-κB p65 nuclear”) and anti-Lamin antibody (described as “Lamin”).

IgE antibody = experiment: Serum IgE antibody ELISA, atopic dermatitis mice; format: in vivo, mouse; details: day 7, topical application, control 1214, vehicle (MC903) 2588
Description: MC903 at 2 nM was applied to the right auricle of a 6-week-old male Balb/c (Japan SLC Inc.). Starting 8 h later, 5% norathyriol aqueous solution (1 mL of ethanol containing […] of norathyriol), betamethasone ointment, and delgocitinib ointment were applied to the auricle for 7 days. The measurement of auricular skin swelling was calculated by calipers. The day on which the first application of the compound was made was defined as day 0. Betamethasone and delgocitinib are currently in clinical use in atopic dermatitis and were used as control drugs in this example.
Serum was collected from mice on day 7 in Example 1, and IgE antibody production was measured by enzyme-linked immunosorbent assay (ELISA). This assay was performed using a mouse IgE antibody ELISA kit (R&D).

## O=c1c2cc(O)c(O)cc2oc2cc(O)cc(O)c12 [norathyriol, 1,3,6,7-tetrahydroxyxanthone]
Th1 cells
  IFNγ expression (CD4 positive): markedly reduced
Mouse B cells
  number of viable cells (cell count): 1.16×10^4 cells/mL
[1]
  number of sneezing: significantly decreased the number of sneezing
[2]
  CD11b positive and F4/80 positive population (activated macrophages): 11.6%
NF-κB p52
  nuclear NF-κB p52 band (immunoblotting): fainter
IgE antibody
  amount of IgE antibody: 1692 ng/mL

## C[C@@H]1CCN(C(=O)CC#N)C[C@@H]1N(C)c1ncnc2[nH]ccc12 [tofacitinib]
[1]
  number of sneezing: significantly decreased the number of sneezing

## CN(C)CC/C=C1/c2ccccc2COc2ccc(CC(=O)O)cc21 [olopatadine]
[1]
  number of sneezing: significantly decreased the number of sneezing
